# Test results taken from the kinase profiling compilation of Christmann-Franck et al. (2016).
# Key:
# Test in all cases: radiometric filter-binding kinase assay, Kinase HotSpot
# Conditions in all cases: compound 0.5 µM; ATP 10 µM
# STK24 (human) = STK24 (human) (UniProt Q9Y6E0)
# STK25 (human) = STK25 (human) (UniProt O00506)
# PRKCD (human) = PRKCD (human) (UniProt Q05655)
# DYRK1B (human) = DYRK1B (human) (UniProt Q9Y463)
# SGK2 (human) = SGK2 (human) (UniProt Q9HBY8)
# [1] = target: TYK2 JH1 catalytic (human) (UniProt P29597)
# KDR (human) = KDR (human) (UniProt P35968)
# PDGFRA (human) = PDGFRA (human) (UniProt P16234)
# CDK4 CCND1 (human) = CDK4 CCND1 (human) (UniProt P24385+P11802)
# ROCK1 (human) = ROCK1 (human) (UniProt Q13464)
# NUAK2 (human) = NUAK2 (human) (UniProt Q9H093)
# Chain of NUAK2 (human) (Q9H093 whole entry, looked up): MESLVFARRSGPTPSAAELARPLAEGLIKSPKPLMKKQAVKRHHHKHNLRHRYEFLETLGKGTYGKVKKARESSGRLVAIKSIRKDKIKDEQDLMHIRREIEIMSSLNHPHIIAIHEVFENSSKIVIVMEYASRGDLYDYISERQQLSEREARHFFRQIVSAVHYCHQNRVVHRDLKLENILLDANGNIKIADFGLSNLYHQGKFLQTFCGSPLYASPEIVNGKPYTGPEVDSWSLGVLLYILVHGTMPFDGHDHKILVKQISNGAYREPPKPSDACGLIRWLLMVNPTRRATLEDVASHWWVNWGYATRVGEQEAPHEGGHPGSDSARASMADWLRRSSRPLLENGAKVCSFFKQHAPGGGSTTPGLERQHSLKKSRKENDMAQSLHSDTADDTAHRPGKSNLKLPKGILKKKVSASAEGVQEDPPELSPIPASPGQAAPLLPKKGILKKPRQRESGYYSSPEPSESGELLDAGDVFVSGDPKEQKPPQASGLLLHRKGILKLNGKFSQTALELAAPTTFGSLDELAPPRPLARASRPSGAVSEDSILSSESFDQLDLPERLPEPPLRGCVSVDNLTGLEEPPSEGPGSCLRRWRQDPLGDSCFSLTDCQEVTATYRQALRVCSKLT
# BLK (human) = BLK (human) (UniProt P51451)
# CAMK2B (human) = CAMK2B (human) (UniProt Q13554)
# PRKCZ (human) = PRKCZ (human) (UniProt Q05513)
# CDK1 CCNA2 (human) = CDK1 CCNA2 (human) (UniProt P06493+P20248)
# RPS6KA1 KD1 KD2 (human) = RPS6KA1 KD1 KD2 (human) (UniProt Q15418)
# MELK (human) = MELK (human) (UniProt Q14680)
# Chain of MELK (human) (Q14680 whole entry, looked up): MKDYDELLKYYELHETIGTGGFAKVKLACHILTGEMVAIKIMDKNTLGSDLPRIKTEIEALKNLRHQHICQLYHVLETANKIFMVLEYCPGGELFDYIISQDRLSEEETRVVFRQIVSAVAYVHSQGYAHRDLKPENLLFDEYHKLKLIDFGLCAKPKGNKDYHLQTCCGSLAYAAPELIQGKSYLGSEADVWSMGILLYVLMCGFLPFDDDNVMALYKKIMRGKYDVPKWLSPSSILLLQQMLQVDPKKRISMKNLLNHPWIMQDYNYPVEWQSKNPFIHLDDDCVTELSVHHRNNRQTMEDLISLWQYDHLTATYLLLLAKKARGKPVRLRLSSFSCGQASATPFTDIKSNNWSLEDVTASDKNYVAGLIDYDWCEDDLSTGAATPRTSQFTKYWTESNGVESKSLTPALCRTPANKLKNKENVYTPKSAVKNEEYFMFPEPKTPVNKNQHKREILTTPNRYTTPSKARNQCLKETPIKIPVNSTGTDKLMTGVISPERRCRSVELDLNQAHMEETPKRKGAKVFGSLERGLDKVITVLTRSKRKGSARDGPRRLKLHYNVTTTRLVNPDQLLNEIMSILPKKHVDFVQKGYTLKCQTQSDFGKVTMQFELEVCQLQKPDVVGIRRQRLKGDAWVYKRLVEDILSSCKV
# CDK5 CDK5R1 p35 (human) = CDK5 CDK5R1 p35 (human) (UniProt Q00535+Q15078)
# DYRK3 (human) = DYRK3 (human) (UniProt O43781)
# EPHA2 (human) = EPHA2 (human) (UniProt P29317)
# Chain of EPHA2 (human) (P29317 whole entry, looked up): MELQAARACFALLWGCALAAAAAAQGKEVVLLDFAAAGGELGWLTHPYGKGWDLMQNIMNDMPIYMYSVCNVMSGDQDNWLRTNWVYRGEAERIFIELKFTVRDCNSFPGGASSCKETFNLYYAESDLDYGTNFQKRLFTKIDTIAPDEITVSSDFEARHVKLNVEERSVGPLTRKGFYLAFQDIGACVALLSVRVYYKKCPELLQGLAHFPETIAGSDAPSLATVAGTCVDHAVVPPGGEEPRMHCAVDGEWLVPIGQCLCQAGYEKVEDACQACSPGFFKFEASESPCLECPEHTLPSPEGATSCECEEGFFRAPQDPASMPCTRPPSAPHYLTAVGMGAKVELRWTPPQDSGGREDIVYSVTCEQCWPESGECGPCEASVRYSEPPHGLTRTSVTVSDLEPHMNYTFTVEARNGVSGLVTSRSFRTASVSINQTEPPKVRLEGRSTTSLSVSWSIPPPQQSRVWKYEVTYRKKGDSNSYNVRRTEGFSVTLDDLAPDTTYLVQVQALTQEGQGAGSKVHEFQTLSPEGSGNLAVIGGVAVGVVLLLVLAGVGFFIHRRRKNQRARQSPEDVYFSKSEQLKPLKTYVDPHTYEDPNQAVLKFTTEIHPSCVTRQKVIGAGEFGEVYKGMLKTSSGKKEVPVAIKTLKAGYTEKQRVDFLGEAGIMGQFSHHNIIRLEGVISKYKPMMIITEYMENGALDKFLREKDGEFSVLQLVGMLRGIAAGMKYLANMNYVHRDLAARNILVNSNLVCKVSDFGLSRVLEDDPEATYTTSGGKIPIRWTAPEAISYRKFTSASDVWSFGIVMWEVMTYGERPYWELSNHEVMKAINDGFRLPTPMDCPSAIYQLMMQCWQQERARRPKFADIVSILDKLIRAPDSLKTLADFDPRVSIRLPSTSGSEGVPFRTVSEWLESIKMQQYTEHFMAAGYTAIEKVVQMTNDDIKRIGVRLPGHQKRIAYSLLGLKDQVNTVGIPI
# PRKCB1 (human) = PRKCB1 (human) (UniProt P05771)
# ACVR1B (human) = ACVR1B (human) (UniProt P36896)
# PRKD3 (human) = PRKD3 (human) (UniProt O94806)
# SIK2 (human) = SIK2 (human) (UniProt Q9H0K1)
# FGFR2 (human) = FGFR2 (human) (UniProt P21802)
# STK3 (human) = STK3 (human) (UniProt Q13188)
# ABL2 (human) = ABL2 (human) (UniProt P42684)
# MAP3K14 (human) = MAP3K14 (human) (UniProt Q99558)
# GRK4 (human) = GRK4 (human) (UniProt P32298)
# Chain of GRK4 (human) (P32298 whole entry, looked up): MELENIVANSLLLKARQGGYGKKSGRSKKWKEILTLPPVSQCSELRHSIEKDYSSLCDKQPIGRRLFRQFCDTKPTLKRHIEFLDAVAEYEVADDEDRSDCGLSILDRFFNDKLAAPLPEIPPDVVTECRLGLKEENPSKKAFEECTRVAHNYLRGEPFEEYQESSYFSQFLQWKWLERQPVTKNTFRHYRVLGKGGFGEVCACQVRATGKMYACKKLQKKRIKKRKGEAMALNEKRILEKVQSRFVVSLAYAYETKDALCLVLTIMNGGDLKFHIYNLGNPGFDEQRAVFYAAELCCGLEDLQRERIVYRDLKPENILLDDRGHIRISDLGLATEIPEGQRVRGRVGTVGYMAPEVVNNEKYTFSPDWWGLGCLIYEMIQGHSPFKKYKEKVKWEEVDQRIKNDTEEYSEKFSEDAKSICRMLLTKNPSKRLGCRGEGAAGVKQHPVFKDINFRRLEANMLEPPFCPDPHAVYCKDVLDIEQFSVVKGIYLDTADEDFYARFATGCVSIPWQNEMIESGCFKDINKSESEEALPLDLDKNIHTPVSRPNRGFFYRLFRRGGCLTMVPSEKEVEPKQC
# SRMS (human) = SRMS (human) (UniProt Q9H3Y6)
# MAP4K5 (human) = MAP4K5 (human) (UniProt Q9Y4K4)
# EPHA5 (human) = EPHA5 (human) (UniProt P54756)
# WNK2 (human) = WNK2 (human) (UniProt Q9Y3S1)
# TNK2 (human) = TNK2 (human) (UniProt Q07912)
# [2] = target: JAK1 JH1 catalytic (human) (UniProt P23458)
# SLK (human) = SLK (human) (UniProt Q9H2G2)
# CAMKK2 (human) = CAMKK2 (human) (UniProt Q96RR4)
# [3] = test system: FLT4 (human), P35916 [Q890H]
# MET (human) = MET (human) (UniProt P08581)
# CAMKK1 (human) = CAMKK1 (human) (UniProt Q8N5S9)
# HIPK4 (human) = HIPK4 (human) (UniProt Q8NE63)
# Chain of HIPK4 (human) (Q8NE63 whole entry, looked up): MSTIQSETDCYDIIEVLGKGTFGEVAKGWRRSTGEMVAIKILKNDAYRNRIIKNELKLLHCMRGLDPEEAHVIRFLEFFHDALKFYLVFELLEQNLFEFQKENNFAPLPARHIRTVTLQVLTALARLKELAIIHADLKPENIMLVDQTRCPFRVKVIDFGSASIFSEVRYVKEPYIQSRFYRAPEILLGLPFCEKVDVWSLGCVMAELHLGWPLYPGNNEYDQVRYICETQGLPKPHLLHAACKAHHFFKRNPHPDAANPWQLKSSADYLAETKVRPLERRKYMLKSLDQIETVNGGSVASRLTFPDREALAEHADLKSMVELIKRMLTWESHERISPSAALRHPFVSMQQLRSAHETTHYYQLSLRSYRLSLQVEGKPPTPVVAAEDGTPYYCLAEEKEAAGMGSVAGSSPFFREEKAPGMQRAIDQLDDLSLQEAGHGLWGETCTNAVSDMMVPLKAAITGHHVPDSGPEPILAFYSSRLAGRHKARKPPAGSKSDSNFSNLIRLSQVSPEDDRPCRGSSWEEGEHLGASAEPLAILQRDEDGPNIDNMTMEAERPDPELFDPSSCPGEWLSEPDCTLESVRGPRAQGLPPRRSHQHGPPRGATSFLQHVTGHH
# CSF1R (human) = CSF1R (human) (UniProt P07333)
# Chain of CSF1R (human) (P07333 whole entry, looked up): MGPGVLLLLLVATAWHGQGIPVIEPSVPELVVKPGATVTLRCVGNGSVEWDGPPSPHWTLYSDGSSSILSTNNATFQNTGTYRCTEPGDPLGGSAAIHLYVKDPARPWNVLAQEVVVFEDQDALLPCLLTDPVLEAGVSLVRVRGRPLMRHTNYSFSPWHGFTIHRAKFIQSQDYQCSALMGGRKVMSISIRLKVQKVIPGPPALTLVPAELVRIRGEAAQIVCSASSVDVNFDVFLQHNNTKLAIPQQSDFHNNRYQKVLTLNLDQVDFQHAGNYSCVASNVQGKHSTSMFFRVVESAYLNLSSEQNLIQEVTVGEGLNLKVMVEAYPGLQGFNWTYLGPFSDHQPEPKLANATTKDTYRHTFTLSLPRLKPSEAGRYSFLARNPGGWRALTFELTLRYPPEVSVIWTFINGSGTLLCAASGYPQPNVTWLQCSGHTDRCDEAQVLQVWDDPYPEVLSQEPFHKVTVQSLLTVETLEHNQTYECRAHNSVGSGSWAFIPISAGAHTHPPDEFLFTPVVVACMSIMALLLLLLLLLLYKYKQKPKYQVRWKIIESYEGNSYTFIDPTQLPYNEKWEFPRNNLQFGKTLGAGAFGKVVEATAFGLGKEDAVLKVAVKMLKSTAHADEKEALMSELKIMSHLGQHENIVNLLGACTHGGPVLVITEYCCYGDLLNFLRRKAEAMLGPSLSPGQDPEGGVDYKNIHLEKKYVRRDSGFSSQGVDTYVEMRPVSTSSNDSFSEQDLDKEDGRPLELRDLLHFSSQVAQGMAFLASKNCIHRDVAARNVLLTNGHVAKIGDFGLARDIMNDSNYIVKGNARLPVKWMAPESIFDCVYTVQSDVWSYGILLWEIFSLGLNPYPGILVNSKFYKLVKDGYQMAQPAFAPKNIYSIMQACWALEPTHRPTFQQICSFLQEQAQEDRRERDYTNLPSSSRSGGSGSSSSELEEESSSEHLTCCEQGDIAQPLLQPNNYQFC
# Chain of STK24 (human) (Q9Y6E0 whole entry, looked up): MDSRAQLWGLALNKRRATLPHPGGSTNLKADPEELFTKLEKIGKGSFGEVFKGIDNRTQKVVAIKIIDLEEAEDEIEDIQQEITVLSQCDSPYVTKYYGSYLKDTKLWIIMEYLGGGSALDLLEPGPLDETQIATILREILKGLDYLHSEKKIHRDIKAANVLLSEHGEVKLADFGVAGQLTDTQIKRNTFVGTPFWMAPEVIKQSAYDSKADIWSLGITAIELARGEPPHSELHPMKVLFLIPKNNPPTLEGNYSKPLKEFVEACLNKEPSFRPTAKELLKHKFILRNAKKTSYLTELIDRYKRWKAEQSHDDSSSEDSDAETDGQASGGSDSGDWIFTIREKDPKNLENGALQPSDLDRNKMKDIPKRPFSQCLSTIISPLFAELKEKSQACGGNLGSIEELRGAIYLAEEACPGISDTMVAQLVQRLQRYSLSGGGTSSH
smiles,measurement,setting,value
COc1ccc(Cl)cc1NC(=O)Nc1cc(C)nc2ccccc12,residual activity,STK24 (human),81.6%
same,residual activity,STK25 (human),101%
same,residual activity,PRKCD (human),96.3%
same,residual activity,DYRK1B (human),99.7%
same,residual activity,SGK2 (human),96.3%
same,residual activity,[1],99.7%
same,residual activity,KDR (human),92.8%
same,residual activity,PDGFRA (human),88.5%
same,residual activity,CDK4 CCND1 (human),98.8%
same,residual activity,ROCK1 (human),100%
same,residual activity,NUAK2 (human),100%
same,residual activity,BLK (human),99.8%
same,residual activity,CAMK2B (human),103%
same,residual activity,PRKCZ (human),99.4%
same,residual activity,CDK1 CCNA2 (human),104%
same,residual activity,RPS6KA1 KD1 KD2 (human),77.8%
same,residual activity,MELK (human),106%
same,residual activity,CDK5 CDK5R1 p35 (human),102%
same,residual activity,DYRK3 (human),106%
same,residual activity,EPHA2 (human),100%
same,residual activity,PRKCB1 (human),105%
same,residual activity,ACVR1B (human),97.4%
same,residual activity,PRKD3 (human),97.1%
same,residual activity,SIK2 (human),87.8%
same,residual activity,FGFR2 (human),96.9%
same,residual activity,STK3 (human),98.9%
same,residual activity,ABL2 (human),91.2%
same,residual activity,MAP3K14 (human),84.9%
same,residual activity,GRK4 (human),105%
same,residual activity,SRMS (human),97.6%
same,residual activity,MAP4K5 (human),100%
same,residual activity,EPHA5 (human),123%
same,residual activity,WNK2 (human),104%
same,residual activity,TNK2 (human),102%
same,residual activity,[2],99.3%
same,residual activity,SLK (human),98.8%
same,residual activity,CAMKK2 (human),93.2%
same,residual activity,[3],100%
same,residual activity,MET (human),96.6%
same,residual activity,CAMKK1 (human),113%
same,residual activity,HIPK4 (human),109%
same,residual activity,CSF1R (human),94.8%
COc1cc2ncnc(Nc3ccc(OCc4ccccc4)cc3)c2cc1OC,residual activity,STK24 (human),104%
same,residual activity,STK25 (human),93.4%
same,residual activity,PRKCD (human),101%
same,residual activity,DYRK1B (human),104%
same,residual activity,SGK2 (human),100%
same,residual activity,[1],103%
same,residual activity,KDR (human),96.8%
same,residual activity,PDGFRA (human),91.3%
same,residual activity,CDK4 CCND1 (human),99.2%
same,residual activity,ROCK1 (human),96.6%
same,residual activity,NUAK2 (human),101%
same,residual activity,BLK (human),88.2%
same,residual activity,CAMK2B (human),105%
same,residual activity,PRKCZ (human),113%
same,residual activity,CDK1 CCNA2 (human),97.2%
same,residual activity,RPS6KA1 KD1 KD2 (human),90.2%
same,residual activity,MELK (human),102%
same,residual activity,CDK5 CDK5R1 p35 (human),103%
same,residual activity,DYRK3 (human),101%
same,residual activity,EPHA2 (human),106%
same,residual activity,PRKCB1 (human),97.4%
same,residual activity,ACVR1B (human),102%
same,residual activity,PRKD3 (human),95.3%
same,residual activity,SIK2 (human),73.7%
same,residual activity,FGFR2 (human),103%
same,residual activity,STK3 (human),97.6%
same,residual activity,ABL2 (human),101%
same,residual activity,MAP3K14 (human),84.4%
same,residual activity,GRK4 (human),106%
same,residual activity,SRMS (human),104%
same,residual activity,MAP4K5 (human),65.4%
same,residual activity,EPHA5 (human),105%
same,residual activity,WNK2 (human),91.6%
same,residual activity,TNK2 (human),53.1%
same,residual activity,[2],101%
same,residual activity,SLK (human),76.4%
same,residual activity,CAMKK2 (human),99.7%
same,residual activity,[3],98.9%
same,residual activity,MET (human),98.9%
same,residual activity,CAMKK1 (human),126%
same,residual activity,HIPK4 (human),100%
same,residual activity,CSF1R (human),97.8%
CN(C)CCCn1cc(C2=C(c3c[nH]c4ccccc34)C(=O)NC2=O)c2ccccc21,residual activity,STK24 (human),52.9%
same,residual activity,STK25 (human),69.7%
same,residual activity,PRKCD (human),4.73%
same,residual activity,DYRK1B (human),76%
same,residual activity,SGK2 (human),74.4%
same,residual activity,[1],79.3%
same,residual activity,KDR (human),65.5%
same,residual activity,PDGFRA (human),69.2%
same,residual activity,CDK4 CCND1 (human),60.7%
same,residual activity,ROCK1 (human),92.3%
same,residual activity,NUAK2 (human),66%
same,residual activity,BLK (human),87%
same,residual activity,CAMK2B (human),74.5%
same,residual activity,PRKCZ (human),57.2%
same,residual activity,CDK1 CCNA2 (human),100%
same,residual activity,RPS6KA1 KD1 KD2 (human),4.67%
same,residual activity,MELK (human),42%
same,residual activity,CDK5 CDK5R1 p35 (human),90%
same,residual activity,DYRK3 (human),97.9%
same,residual activity,EPHA2 (human),81.8%
same,residual activity,PRKCB1 (human),3.24%
same,residual activity,ACVR1B (human),106%
same,residual activity,PRKD3 (human),54.6%
same,residual activity,SIK2 (human),94.7%
same,residual activity,FGFR2 (human),95.4%
same,residual activity,STK3 (human),44.2%
same,residual activity,ABL2 (human),96.3%
same,residual activity,MAP3K14 (human),110%
same,residual activity,GRK4 (human),84.5%
same,residual activity,SRMS (human),104%
same,residual activity,MAP4K5 (human),68.5%
same,residual activity,EPHA5 (human),92%
same,residual activity,WNK2 (human),107%
same,residual activity,TNK2 (human),94.7%
same,residual activity,[2],88.7%
same,residual activity,SLK (human),45.8%
same,residual activity,CAMKK2 (human),59.8%
same,residual activity,[3],30.6%
same,residual activity,MET (human),102%
same,residual activity,CAMKK1 (human),90.8%
same,residual activity,HIPK4 (human),113%
same,residual activity,CSF1R (human),76.7%
O=C1NC(=O)c2c1c1c3ccccc3[nH]c1n1cncc21,residual activity,STK24 (human),48.4%
same,residual activity,STK25 (human),72.5%
same,residual activity,PRKCD (human),65%
same,residual activity,DYRK1B (human),65.9%
same,residual activity,SGK2 (human),75.3%
same,residual activity,[1],85.4%
same,residual activity,KDR (human),66.6%
same,residual activity,PDGFRA (human),84.4%
same,residual activity,CDK4 CCND1 (human),86%
same,residual activity,ROCK1 (human),95.9%
same,residual activity,NUAK2 (human),80.1%
same,residual activity,BLK (human),73.9%
same,residual activity,CAMK2B (human),58.2%
same,residual activity,PRKCZ (human),84.8%
same,residual activity,CDK1 CCNA2 (human),94.8%
same,residual activity,RPS6KA1 KD1 KD2 (human),31.1%
same,residual activity,MELK (human),32.6%
same,residual activity,CDK5 CDK5R1 p35 (human),67%
same,residual activity,DYRK3 (human),85.8%
same,residual activity,EPHA2 (human),102%
same,residual activity,PRKCB1 (human),95%
same,residual activity,ACVR1B (human),103%
same,residual activity,PRKD3 (human),47.7%
same,residual activity,SIK2 (human),91.9%
same,residual activity,FGFR2 (human),91.3%
same,residual activity,STK3 (human),41%
same,residual activity,ABL2 (human),79.9%
same,residual activity,MAP3K14 (human),83%
same,residual activity,GRK4 (human),101%
same,residual activity,SRMS (human),100%
same,residual activity,MAP4K5 (human),13.5%
same,residual activity,EPHA5 (human),92%
same,residual activity,WNK2 (human),86.6%
same,residual activity,TNK2 (human),41.3%
same,residual activity,[2],102%
same,residual activity,SLK (human),87.8%
same,residual activity,CAMKK2 (human),77.2%
same,residual activity,[3],56.6%
same,residual activity,MET (human),93.4%
same,residual activity,CAMKK1 (human),63.5%
same,residual activity,HIPK4 (human),98.5%
same,residual activity,CSF1R (human),64.9%
